“Also recorded” adds a separate entry of the source. Like-named read-outs stand apart in the source and are kept apart here.
Legend:
[1] = system: herpes simplex virus type 1 (HSV-1, McIntyre); experiment: Inhibition of virus replication, virus yield by plaque method; format: cell-based; parameters: ED90 McIntyre: unit not given here; conditions: for ED90 McIntyre: HSV-1 in Vero cells, drug concentration reducing virus titers by 90%, unit only in b38; for HSV-1 virus yield: Vero cells
[2] = system: herpes simplex virus type 2 (HSV-2, MS); experiment: as above; format: cell-based; conditions: for ED90 MS: HSV-2 in Vero cells, drug concentration reducing virus titers by 90%
[3] = system: VSV (vesicular stomatitis virus); format: cell-based; parameters: ED90 VSV: unit not given beside the values; conditions: Vero cells
[4] = system: coxsackie A21; format: cell-based; parameters: ED90 Col: unit not given beside the values; conditions: for coxsackie A21 virus yield: ML cells
[5] = system: coxsackie B3 virus (Nancy Strain); experiment: Inhibition of virus replication, virus yield in Vero cells; format: cell-based
[6] = system: Herpes Simplex virus type 2 (HSV-2, strain 35D); experiment: Genital HSV-2 infection of female mice, intravaginal treatment, survival; format: in vivo; conditions: for mice survived (of 14): study of Table 3; for %S (percent survivors) / MDD (mean day of death): N 14; for protection of mice from lethal genital HSV-2 infection, summary in words: intravaginally from one hour after inoculation, 3 times daily
[7] = system: PR-8; conditions: 50 pg of test compound (so in the source); for zone of cytotoxicity: first figure of the cell; for zone of antiviral activity (viral plaque inhibition): second figure of the cell
[8] = system: E.R.; conditions: 50 pg of test compound (so in the source); for zone of cytotoxicity: first figure of the cell; for zone of antiviral activity (viral plaque inhibition): second figure of the cell
[9] = system: Vacc.; conditions: 50 pg of test compound (so in the source); for zone of cytotoxicity: first figure of the cell; for zone of antiviral activity (viral plaque inhibition): second figure of the cell
[10] = system: Vero cells; conditions: monkey
[11] = system: Coe; experiment: Cell culture antiviral activity, agar-well zones of cytotoxicity / plaque inhibition; conditions: second figure of the cell, 50 pg of test compound (so in the source)
[12] = system: HA-1; experiment: as above; conditions: 50 pg of test compound (so in the source); for zone of cytotoxicity: first figure of the cell; for zone of antiviral activity (viral plaque inhibition): second figure of the cell
[13] = system: HSV-1; experiment: as above; conditions: second figure of the cell, 50 pg of test compound (so in the source)
[14] = system: HSV-2; experiment: as above; conditions: second figure of the cell, 50 pg of test compound (so in the source)
[15] = system: Herpes Simplex virus type 2 (HSV-2, strain 35D); experiment: Genital HSV-2 infection of female mice, virus titers in vaginal secretions; format: in vivo; conditions: for Mean virus titer in swabs of mice which shed virus / Nv/Nt, swabs with virus/total swabs: 8.0 x 10^4 PFU;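 on Mean virus titer in swabs of mice which shed virus: titer expressed as log PFU per ml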
[16] = 8.0 x 10^3 PFU/0.1 ml, mg/ml cell empty (1 mg/ml in upper section)
[17] = 8.0 x 10^4 PFU/0.1 ml, 1 mg/ml intravaginally
[18] = higher drug concentrations (5 and 50 µg/ml) compared with 0.5
[19] = second study, 8.0 x 10^4 PFU in 0.1 ml, 0.5 mg/ml
[20] = day 1 after HSV-2 inoc., 0.5 mg/ml
[21] = day 1 after HSV-2 inoc., 1 mg/ml
[22] = day 2 after HSV-2 inoc., 0.5 mg/ml
[23] = day 2 after HSV-2 inoc., 1 mg/ml
[24] = day 3 after HSV-2 inoc., 0.5 mg/ml
[25] = day 3 after HSV-2 inoc., 1 mg/ml
[26] = day 4 after HSV-2 inoc., 0.5 mg/ml
[27] = day 4 after HSV-2 inoc., 1 mg/ml
[28] = day 7 after HSV-2 inoc., 0.5 mg/ml
[29] = day 7 after HSV-2 inoc., 1 mg/ml

COC(=O)C1CCC2C(C1)OC1(CC(OC(=O)/C=C/c3ccccc3)C(C)CO1)C21CO1 (stereo not shown) [Phyllanthocin]
ED90 McIntyre [1]: 7.1380 | ED90 McIntyre ([1]; listed as phyllanthocin): 7.14 | HSV-1 virus yield ([1]; 5 µg/ml): only modestly inhibitory; also recorded: reductions in yields | HSV-1 virus yield ([1]; 50 µg/ml): reduced yields of all viruses; also recorded: reduction in titers of all viruses | ED90 MS [2]: 7.99 µg per ml | ED90 MS ([2]; 1440 min): 7.9939 µg per ml | HSV-2 yields reduced by ([2]; Vero cells, 5 µg per ml): greater than 1 log | HSV-2 virus yield ([2]; Vero cells, 5 µg/ml): reductions in yields; also recorded: inhibitory | HSV-2 virus yield ([2]; Vero cells, 50 µg/ml): reduced yields of all viruses; also recorded: reduction in titers of all viruses | VSV virus yield ([3]; 5 µg/ml (below 5 µg per ml)): non-inhibitory; also recorded: not affected; also recorded: not for VSV or Coxsackie A-21 | VSV virus yield ([3]; 50 µg/ml): reduced yields of all viruses; also recorded: reduction in titers of all viruses | ED90 VSV ([3]; reduces virus yield by 90%, unit not given, NS - not significant): 8.668 | coxsackie A21 virus yield ([4]; 5 µg/ml (below 5 µg per ml)): non-inhibitory; also recorded: did not reduce the yields; also recorded: not affected; also recorded: not for VSV or Coxsackie A-21 | coxsackie A21 virus yield ([4]; 50 µg/ml): reduced yields of all viruses; also recorded: reduction in titers of all viruses | ED90 Col ([4]; […], unit not given, NS - not significant): 61.7506 | coxsackie B3 virus yield ([5]; 5 µg per ml): inhibitory for coxsackie B3 replication | mice survived (of 14) ([6]; 8.0 x 10^3 PFU in 0.1 ml): four | %S (percent survivors) [6, 16]: 29% | MDD (mean day of death) [6, 16]: 8.5 days | mice survived (of 14) ([6]; 8.0 x 10^4 PFU in 0.1 ml): did not protect mice from lethal infection | %S (percent survivors) [6, 17]: 14% | MDD (mean day of death) [6, 17]: 8.0 days | protection of mice from lethal genital HSV-2 infection, summary in words [6]: devoid of antiviral activity | zone of cytotoxicity [7]: 2 (2 - 20-30 mm) | zone of antiviral activity (viral plaque inhibition) [7]: 0 | zone of cytotoxicity [8]: 0/0 | zone of antiviral activity (viral plaque inhibition) [8]: 0/0 | zone of cytotoxicity [9]: 0 | zone of antiviral activity (viral plaque inhibition) [9]: 4 | times less cytotoxic than phyllanthoside or phyllanthostatin I [10]: 2-5 | ID50 Vero 72 hrs. ([10]; vero cells, 72 h): 5.91 mg per ml | zone of antiviral activity (viral plaque inhibition) [11]: 0/0 | zone of cytotoxicity [12]: 0/0 | zone of antiviral activity (viral plaque inhibition) [12]: 0/0 | zone of antiviral activity (viral plaque inhibition) [13]: 3 | zone of antiviral activity (viral plaque inhibition) [14]: 2 (2 - 20-30 mm)

Phyllanthostatin 3
HSV-1 virus yield ([1]; 50 µg/ml): slight reduction in yields | HSV-2 virus yield ([2]; Vero cells, 50 µg/ml): slight reduction in yields

Phyllanthostatin I
ED90 McIntyre ([1]; listed as Phyllanthostatin): 2.3743 | ED90 McIntyre ([1]; listed as phyllanthostatin I): 2.37 | HSV-1 virus yield [1, 18]: further reductions in all virus yields | ED90 MS [2]: 1.64 µg per ml | ED90 MS ([2]; 1440 min): 1.164 µg per ml | HSV-2 virus yield ([2]; Vero cells, 0.5 µg/ml): most susceptible virus to inhibition | HSV-2 virus yield ([2]; Vero cells, higher drug concentrations (5 and 50 µg/ml) compared with 0.5): further reductions in all virus yields | VSV virus yield [3, 18]: further reductions in all virus yields | coxsackie A21 virus yield ([4]; 5 µg/ml (below 5 µg per ml)): inhibitory for both viruses | coxsackie A21 virus yield ([4]; below 5 µg per ml (i.e., 0.5 or 1), study of b36): reduced titers of coxsackie A21 | coxsackie A21 virus yield [4, 18]: further reductions in all virus yields | coxsackie B3 virus yield ([5]; 5 µg per ml): inhibitory for both viruses | coxsackie B3 virus yield ([5]; below 5 µg per ml (i.e., 0.5 or 1)): unaffected | mice survived (of 14) ([6]; 8.0 x 10^3 PFU in 0.1 ml): 10 | %S (percent survivors) [6, 16]: 71% | MDD (mean day of death) [6, 16]: 11.8 days | mice survived (of 14) ([6]; 8.0 x 10^4 PFU in 0.1 ml): 4 | %S (percent survivors) [6, 17]: 29% | MDD (mean day of death) [6, 17]: 7.4 days | protection of mice from lethal genital HSV-2 infection, summary in words [6]: protected mice from lethal infection when the virus inoculum was reduced | MDD [6, 19]: the same as the saline and DMSO saline treated group | mice survived [6, 19]: all of the animals succumed to infection | death of mice ([6]; second study, 8.0 x 10^4 PFU in 0.1 ml, 1 mg/ml): 80% | mean titers compared with controls ([15]; 0.5 mg/ml, day 4): nearly the same as that in the controls | mean virus titers less than placebo treated group ([15]; 0.5 mg/ml, days 2 and 3): about 0.7 logs | mean titer less than the placebo ([15]; 1 mg/ml, day 1): greater than 2 logs | mean virus titers lower than placebo treated controls ([15]; 1 mg/ml, days 2 through 4): about 0.5 logs | Mean virus titer in swabs of mice which shed virus [15, 20]: 2.69 log PFU/ml | Nv/Nt, swabs with virus/total swabs [15, 20]: 9/10 | Mean virus titer in swabs of mice which shed virus [15, 21]: 1.67 log PFU/ml | Nv/Nt, swabs with virus/total swabs [15, 21]: 4 | Nv/Nt, swabs with virus/total swabs ([15]; day 1 after HSV-2 inoc., 1 mg/ml, listed as Phyllanostatin I): 6/10 | Mean virus titer in swabs of mice which shed virus [15, 22]: 3.76 log PFU/ml | Nv/Nt, swabs with virus/total swabs [15, 22]: 10/10 | Mean virus titer in swabs of mice which shed virus [15, 23]: 3.83 log PFU/ml | Nv/Nt, swabs with virus/total swabs [15, 23]: 8/10 | Mean virus titer in swabs of mice which shed virus [15, 24]: 3.71 log PFU/ml | Nv/Nt, swabs with virus/total swabs [15, 24]: 10/10 | Mean virus titer in swabs of mice which shed virus [15, 25]: 3.93 log PFU/ml | Nv/Nt, swabs with virus/total swabs [15, 25]: 8/10 | Mean virus titer in swabs of mice which shed virus [15, 26]: 4.13 log PFU/ml | Nv/Nt, swabs with virus/total swabs [15, 26]: 10/10 | Mean virus titer in swabs of mice which shed virus [15, 27]: 3.63 log PFU/ml | Nv/Nt, swabs with virus/total swabs [15, 27]: 8/10 | Mean virus titer in swabs of mice which shed virus [15, 28]: (3.98) log PFU/ml | Nv/Nt, swabs with virus/total swabs [15, 28]: 1/1 | Mean virus titer in swabs of mice which shed virus [15, 29]: 3.47 log PFU/ml | Nv/Nt, swabs with virus/total swabs [15, 29]: 3/5 | zone of cytotoxicity [7]: 2/2 (2 - 20-30 mm) | zone of antiviral activity (viral plaque inhibition) [7]: 2/2 (2 - 20-30 mm) | zone of cytotoxicity [8]: 2 (2 - 20-30 mm) | zone of antiviral activity (viral plaque inhibition) [8]: 4 | zone of cytotoxicity [9]: 4/4 | zone of antiviral activity (viral plaque inhibition) [9]: 4/4 | zone of antiviral activity (viral plaque inhibition) [11]: 0 | zone of cytotoxicity [12]: 4 | zone of antiviral activity (viral plaque inhibition) [12]: 0 | zone of antiviral activity (viral plaque inhibition) [13]: 4/4 | zone of antiviral activity (viral plaque inhibition) [14]: 4/4

Source: patent EP0173480A2, “The antiviral use of phyllanthostatins” (priority 1984, dated 1986)
